This assay has as its target T1, purified pig brain PMCA (brainPMCA).
T1 construct: gene ATP2B1; native, purified from pig brain synaptosomal plasma membrane vesicles, delipidated, reconstituted in PS or PC
The assay is described as follows: quenching of intrinsic Trp fluorescence, Stern-Volmer. The format is binding, Sus scrofa. The settings on record: reconstituted in PS, no tau; pH 7.4, 25 °C, 100 mM KCl, 2 mM MgCl2, 3.16 µM free Ca2+, 1 mM ATP; unreliable (extrapolated: titrated only up to 10 µM MB). The source says:
quenching of intrinsic Trp fluorescence, Stern-Volmer on purified pig brain PMCA (brainPMCA)

Take `CN(C)c1ccc2nc3ccc(=[N+](C)C)cc-3sc2c1` [Methylene blue]: the “Kd” value was 52.6 ± 2.5 µM.

By Kd is commonly meant the free concentration of one partner at which half of the binding sites on the other are occupied at equilibrium, for simple one-to-one binding.

(Values after publication PMC6678728, “Methylene Blue Blocks and Reverses the Inhibitory Effect of Tau on PMCA Function” (International Journal of Molecular Sciences, 2019).)
